Reference: PubChem BioAssay (NCI)
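A five-concentration, 48-hour dose response in 96-well plates underlies each endpoint, interpolated linearly between surrounding concentrations. The concentration for 50% growth inhibition is given as GI50. TGI marks complete inhibition of growth.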

How the values were obtained:
Assay in all cases: NCI tumour cell line growth inhibition, 48 h
NCI-H23 lung = tested on: NCI-H23 lung
KM12 colon = tested on: KM12 colon
CAKI-1 renal = tested on: CAKI-1 renal
SK-MEL-2 melanoma = tested on: SK-MEL-2 melanoma
IGROV1 ovarian = tested on: IGROV1 ovarian
LOX IMVI melanoma = tested on: LOX IMVI melanoma
HOP-92 NSCLC = tested on: HOP-92 NSCLC
MDA-MB-231 breast = tested on: MDA-MB-231 breast
DU-145 prostate = tested on: DU-145 prostate
NCI/ADR-RES ovarian = tested on: NCI/ADR-RES ovarian

Compound	TGI (NCI-H23 lung) [µM]	TGI (KM12 colon) [µM]	TGI (CAKI-1 renal) [µM]	TGI (SK-MEL-2 melanoma) [µM]	TGI (IGROV1 ovarian) [µM]	TGI (LOX IMVI melanoma) [µM]	TGI (HOP-92 NSCLC) [µM]	TGI (MDA-MB-231 breast) [µM]	GI50 (KM12 colon) [µM]	GI50 (CAKI-1 renal) [µM]	GI50 (SK-MEL-2 melanoma) [µM]	GI50 (MDA-MB-231 breast) [µM]	GI50 (DU-145 prostate) [µM]	TGI (DU-145 prostate) [µM]	GI50 (LOX IMVI melanoma) [µM]	GI50 (HOP-92 NSCLC) [µM]	GI50 (NCI/ADR-RES ovarian) [µM]	TGI (NCI/ADR-RES ovarian) [µM]	GI50 (NCI-H23 lung) [µM]	GI50 (IGROV1 ovarian) [µM]
Cc1[nH]c2ccccc2c1C(=O)CC1(O)C(=O)Nc2c(Cl)cc(Cl)cc21 (stereo unspecified)	44.5	> 100	98.3	81	> 100	72.5	–	–	–	–	–	–	–	–	–	–	–	–	–	–
Cc1ccc(-c2nnc(-c3nn(-c4ccccc4)c4nc5ccccc5nc34)o2)cc1	40.6	> 100	26.9	39	41.7	40.9	20.9	–	–	–	–	–	–	–	–	–	–	–	–	–
CC1(O)C=CC(=O)C=C1	93.8	> 75.4	91.5	56	70.2	52.5	> 100	–	–	–	–	–	–	–	–	–	–	–	–	–
COc1cc2c(c(OC)c1OC)-c1ccc(SC)c(=O)cc1C(NC(=O)c1ccccc1)CC2 (stereo unspecified)	0.903	0.0357	48.5	< 0.215	49.6	62.2	3.79	1.77	–	–	–	–	–	–	–	–	–	–	–	–
COC(=O)C1(C)CCc2c(OC)ccc(OC)c2C1=O (stereo unspecified)	> 100	> 100	–	> 100	> 100	> 100	–	–	–	–	–	–	–	–	–	–	–	–	–	–
C/C(=C\c1ccc2ccccc2c1)[N+](=O)[O-]	–	4.19	4.05	3.35	–	2.8	5.06	3.92	2.11	1.92	1.85	2.02	1.91	3.54	1.19	1.96	7.75	23.7	–	–
Cc1cccc(C)c1NC(=O)/C(=N/NC(N)=S)C(C)C(=O)c1ccc(Cl)cc1 (stereo unspecified)	> 100	> 100	> 100	> 100	> 100	–	> 100	–	–	–	–	–	–	–	–	–	–	–	–	–
CN(C)CCCn1c(=O)c2ccccc2c2ccccc21	46	66.7	34.9	33.5	–	44	67.2	62.7	15.5	6.23	16.5	22.3	18.5	52	5.13	17.9	10.9	> 100	17.6	–
CCOC(=O)C1C(=S)NC(=O)C1C#N (stereo unspecified)	> 100	> 100	> 100	> 100	> 100	> 100	> 100	–	–	–	–	–	–	–	–	–	–	–	–	–
N#CC1(C(N)=O)C(c2ccc(Cl)cc2)CC(=O)CC1c1ccc(Cl)cc1 (stereo unspecified)	–	43.9	55.9	31.1	33.7	33.3	32.1	28.9	19.4	20.4	16.1	13.8	15.6	29	17	16.4	39.7	> 100	–	18.1
COc1cc2c3c(n(C)c(=O)c2cc1OC)-c1cc2c(cc1/C3=C\CCCCN1C(=O)c3ccccc3C1=O)OCO2	19.2	> 100	35.4	–	–	22.5	7.49	38.3	59.3	0.686	–	13.3	–	–	10.7	–	24.1	> 100	1.34	–
O=C(NC1CCCCC1)NS(=O)(=O)c1ccc2c(c1)CCC2	> 100	> 100	–	> 100	> 100	> 100	> 100	–	–	–	–	–	–	–	–	–	–	–	–	–
O=C1c2c(c3c4ccccc4[nH]c3c3ccc4ccccc4c23)C(=O)N1CCN1CCNCC1	3.7	3.07	2.69	4.7	2.84	3.11	4.14	3.27	1.5	1.37	2.03	1.72	1.73	3.25	1.63	1.83	–	–	1.84	1.46
Cc1c(/C=N/N=C/c2[nH]c(C(=O)OC(C)(C)C)c(C)c2C)[nH]c(C(=O)OC(C)(C)C)c1C	> 100	> 100	> 100	> 100	> 100	> 100	> 100	–	–	–	–	–	–	–	–	–	–	–	–	–
CCCCCCCCCCCCCCCCCC1=NCCN1CCOC1=C(Cl)C(=O)c2ccccc2C1=O	7.73	3.61	2.98	5.08	–	–	3.4	5.03	1.91	1.57	2.39	2.05	6.09	18.1	–	1.78	–	–	2.5	–
O=C1c2cccnc2C(=O)c2c1c(C(=O)NCCCN1CCCCC1)c1ccccn21	2.75	10.1	–	5.17	3.62	2.03	4.9	7.23	0.99	–	2.05	0.562	1.2	2.61	0.49	2.33	2.08	7.37	0.436	1.23
O=C1C(=C([O-])c2ccccc2)C(=O)c2ccccc21.O=C1C(=C([O-])c2ccccc2)C(=O)c2ccccc21.[Fe+2]	> 100	> 100	> 100	–	> 100	23.6	38.6	–	55.1	> 100	–	–	–	–	6.33	16.1	–	–	58.8	> 100
CC#CCC1CCC(OCC)=CC1=O (stereo unspecified)	> 100	> 100	> 100	> 100	> 100	> 100	> 100	–	–	–	–	–	–	–	–	–	–	–	–	–
CO/N=C(\COc1ccc2c(c1)[nH]c1ccccc12)c1ccc(F)cc1	> 100	> 100	> 100	–	> 100	> 100	55.2	> 100	> 100	> 100	–	20.1	> 100	> 100	> 100	13.7	51.8	> 100	> 100	77.3
